Measurements published in patent US20100093017A1, “Metabolically Competent Cell Lines” (CXR Biosciences Limited, priority 2008, published 2010).

Tests used:
[1] = system: antioxidant responsive element (ARE); experiment: ARE luciferase reporter induction in adenovirus-P450-transduced ARE32 (MCF-7/ARE) cells; type: cell-based, human; conditions: BHA 20 μM; for ARE reporter induction: 7-EC 100 μM; for induction of the ARE reporter: MCF-7 control cells or in the presence of CYP3A4 or CYP2D6, 7-E 100 μM
Experimental: ARE32 cells were seeded in 24-well plates at 2×10^5 cells per well and cultured overnight. Cells were transduced for 2 h with up to three Adeno-P450s at MOI value of 27 pfu/cell in 0.5 ml of culture medium, after which the medium was removed and replaced with fresh medium. Cells were incubated for an additional 48 h and then were treated with chemicals in serum-free medium for 1 day. Then cells were harvested and lysed. The Luciferase Reporter Assay System (Promega) was used to examine reporter gene activity in cell lysates.
In cell line ARE32, the antioxidant responsive element (ARE), activated by Nrf2, is used to drive a luciferase gene as reporter. A functional ARE is found in the 5′ flanking region of genes encoding NQO1, multiple GST isozymes and many other anticarcinogenic/antioxidant genes. Induction of these genes confers cytoprotection against carcinogenesis and acts to minimize the effects of the toxic insult. Therefore, measurement of ARE induction provides useful information into the particular mechanism of toxicity. […] ARE32 control values are from ARE32 cells without virus infection. ARE32 Transduced values are from ARE32 cells infected with three viruses: Ad3A4.F2A.CPR; Ad2D6(His)CPR; and Ad2A6.F2A.1A1 at a total MOI value of 27.
In further experiments, we examined induction of the ARE reporter in MCF-7 cells expressing CYP3A4 and CPR, CYP2A6 and CPR, CYP2D6 and CPR or CYP2A6 and CYP1A1 by either butylated hydroxyanisole, an antioxidant widely used as a food preservative (BHA-20 μM) or 7-ethoxycoumarin, an antioxidant (7-E-100 μM).
With reference to FIG. 5, expression of the luciferase reporter readout is evaluated in comparison to control MCF-7/ARE cells not expressing P450 transgenes (first bar=1).
Butylated hydroxyanisole (BHA) is an antioxidant used as a food additive (E320). […] We examined induction of the ARE reporter in ARE32 cells expressing CYP3A4 and CPR, CYP2A6 and CPR, CYP2D6 and CPR or CYP2A6 and CYP1A1 by either butylated hydroxyanisole (BHA) at 20 μM or 7-ethoxycoumarin (7-EC) at 100 μM (FIG. 8).

HepG2 cells = system: HepG2 cells
Experimental: CYP3A4 and P450 reductase were delivered into HepG2 cells (Hep-3A4) by adenoviral transduction at Multiplicity of Infection (MOI)=8. […] The adenovirus Ad-mock was used to transduce HepG2 cells at MOI=8 as control (Hep-mock). CYP3A4 activity was determined and compared in Hep-3A4 cells and cryopreserved human hepatocytes.

[2] = system: cryopreserved human hepatocytes
[3] = ARE32 cells expressing CYP3A4 or CYP2D6 (with CPR)

SMILES	ARE reporter induction ([1]; ARE32 cells expressing CYP2A6)	ARE reporter induction [1, 3]	induction of the ARE reporter [1]	effect of glutathione depletion by BSO on cytotoxicity (HepG2 cells; 100 μM BSO, Hep-3A4 and Hep-mock cells)	additional CYP3A4 related cytotoxic effect under glutathione depletion (HepG2 cells; 100 μM BSO, Hep-3A4 vs Hep-mock, at the concentrations used)	cell viability (ATP depletion assay) (HepG2 cells; Hep-3A4 and Hep-mock cells)	concentration at which CYP3A4-related toxic activation was observed (HepG2 cells; Hep-3A4 vs Hep-mock)	cell viability (ATP depletion assay) [2]
CCOc1ccc2ccc(=O)oc2c1 [7-ethoxycoumarin]	Significant ARE reporter induction	not with CYP3A4 or CYP2D6	little or no induction	–	–	–	–	–
COc1ccc(O)c(C(C)(C)C)c1 [BHA, butylated hydroxyanisole]	Significant ARE reporter induction	not with CYP3A4 or CYP2D6	little or no induction	–	–	–	–	–
CC(=O)Nc1ccc(O)cc1 [acetaminophen]	–	–	–	significant sensitisation	no apparent additional CYP3A4 related cytotoxic effect	dose-dependent decrease in cell viability	10000 µM	–
CC/C(=C(\c1ccccc1)c1ccc(OCCN(C)C)cc1)c1ccccc1 [tamoxifen]	–	–	–	–	–	dose-dependent decrease in cell viability	–	dose-dependent decrease in cell viability
